# PubChem BioAssay AID256 (DTP/NCI, 2004)
# Where “and” joins values, the source holds several entries; their conditions need not be identical. Identical values can stand only once. Inconclusive results and toxic doses are left out.
# Test system: CD2F1 mice, L1210 leukemia ip, survival T/C
# Test: NCI In Vivo Anticancer Drug Screen. Data for tumor model L1210 Leukemia (intraperitoneal) in CD2F1 (CDF1) mice
# Settings: higher = longer survival
# Method in brief: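 Implant tumor; dose compound or vehicle; measure endpoint in both groups; report treated divided by control.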
# [1] = endpoint: mean survival time, dose: 100.0 mg/kg/injection, schedule: Q04DX003 (ip), vehicle: saline
# [2] = endpoint: mean survival time, dose: 200.0 mg/kg/injection, schedule: Q04DX003 (ip), vehicle: saline
# [3] = endpoint: mean survival time, dose: 400.0 mg/kg/injection, schedule: Q04DX003 (ip), vehicle: saline
# [4] = endpoint: mean survival time, dose: 100.0 mg/kg/injection, schedule: Q04DX003 (ip), vehicle: saline with Tween-80
# [5] = endpoint: mean survival time, dose: 200.0 mg/kg/injection, schedule: Q04DX003 (ip), vehicle: saline with Tween-80
# [6] = endpoint: mean survival time, dose: 400.0 mg/kg/injection, schedule: Q04DX003 (ip), vehicle: saline with Tween-80
# [7] = endpoint: mean survival time, dose: 100.0 mg/kg/injection, schedule: Q04DX002 (ip), vehicle: Klucel (hydroxypropylcellulose) (HPC)
# [8] = endpoint: mean survival time, dose: 50.0 mg/kg/injection, schedule: Q01DX009 (ip), vehicle: saline with Tween-80
# [9] = endpoint: mean survival time, dose: 50.0 mg/kg/injection, schedule: Q04DX003 (ip), vehicle: saline with Tween-80
# [10] = endpoint: mean survival time, dose: 100.0 mg/kg/injection, schedule: Q01DX009 (ip), vehicle: saline with Tween-80
# [11] = endpoint: mean survival time, dose: 200.0 mg/kg/injection, schedule: Q01DX009 (ip), vehicle: saline with Tween-80
# [12] = endpoint: mean survival time, dose: 100.0 mg/kg/injection, schedule: Q01DX001 (ip), vehicle: saline with Tween-80
# [13] = endpoint: mean survival time, dose: 200.0 mg/kg/injection, schedule: Q01DX001 (ip), vehicle: saline with Tween-80
# [14] = endpoint: mean survival time, dose: 400.0 mg/kg/injection, schedule: Q01DX009 (ip), vehicle: saline with Tween-80
# [15] = endpoint: mean survival time, dose: 100.0 mg/kg/injection, schedule: Q01DX001 (ip), vehicle: saline
# [16] = endpoint: mean survival time, dose: 200.0 mg/kg/injection, schedule: Q01DX001 (ip), vehicle: saline
compound,measurement,setting,value
CCN(CC)CC(=O)Nc1cccc2c1C(=O)c1c(c(O)c3ccccc3c1O)C2=O,T/C,"endpoint: mean survival time, dose: 6.0 mg/kg/injection, schedule: Q04DX003 (ip), vehicle: saline with Tween-80",94 % of control
same,T/C,"endpoint: mean survival time, dose: 12.0 mg/kg/injection, schedule: Q04DX003 (ip), vehicle: saline with Tween-80",100 % of control
same,T/C,"endpoint: mean survival time, dose: 24.0 mg/kg/injection, schedule: Q04DX003 (ip), vehicle: saline with Tween-80",96 % of control
same,T/C,"endpoint: mean survival time, dose: 48.0 mg/kg/injection, schedule: Q04DX003 (ip), vehicle: saline with Tween-80",98 % of control
NS(=O)(=O)c1ccc(NC(=O)/C=C/C(=O)O)cc1,T/C,[1],101 % of control
same,T/C,[2],97 % of control
same,T/C,[3],97 % of control
CCCC1(CCC)c2ccccc2C(Cl)(CCl)c2ccccc21,T/C,"endpoint: mean survival time, dose: 12.5 mg/kg/injection, schedule: Q01DX009 (ip), vehicle: other",88 % of control
same,T/C,"endpoint: mean survival time, dose: 25.0 mg/kg/injection, schedule: Q01DX009 (ip), vehicle: other",94 % of control
same,T/C,"endpoint: mean survival time, dose: 50.0 mg/kg/injection, schedule: Q01DX009 (ip), vehicle: other",92 % of control
same,T/C,"endpoint: mean survival time, dose: 100.0 mg/kg/injection, schedule: Q01DX009 (ip), vehicle: other",94 % of control
same,T/C,"endpoint: mean survival time, dose: 200.0 mg/kg/injection, schedule: Q01DX009 (ip), vehicle: other",86 % of control
O=C(COc1ccc(Cl)c(Cl)c1)Nc1ccc(C(=O)CCl)cc1,T/C,[4],100 % of control
same,T/C,[5],97 % of control
same,T/C,[6],114 % of control
CCOC(=O)N1Cc2cc3ccccc3nc2C1,T/C,"endpoint: mean survival time, dose: 75.0 mg/kg/injection, schedule: Q01DX009 (ip), vehicle: saline with Tween-80",100 % of control
same,T/C,"endpoint: mean survival time, dose: 150.0 mg/kg/injection, schedule: Q01DX009 (ip), vehicle: saline with Tween-80",101 % of control
CC1(C)N=C(N)N=C(N)N1c1cccc(/C=C(\C#N)c2ccccc2)c1,T/C,[7],98 % of control
same,T/C,"endpoint: mean survival time, dose: 200.0 mg/kg/injection, schedule: Q04DX002 (ip), vehicle: Klucel (hydroxypropylcellulose) (HPC)",95 % of control
CC(=O)NC(Cc1cc(I)c(OC(C)=O)c(I)c1)C(=O)O (configuration not stated),T/C,[8],93 % of control
same,T/C,[9],101 % of control
same,T/C,[10],93 % of control
same,T/C,[4],95 % of control
same,T/C,[11],93 % of control
same,T/C,[5],97 % of control
FC(F)(F)COP1(OCC(F)(F)F)=NP(OCC(F)(F)F)(OCC(F)(F)F)=NP(OCC(F)(F)F)(OCC(F)(F)F)=NP(OCC(F)(F)F)(OCC(F)(F)F)=N1,T/C,"endpoint: mean survival time, dose: 50.0 mg/kg/injection, schedule: Q01DX009 (ip), vehicle: saline",100 % of control
same,T/C,"endpoint: mean survival time, dose: 100.0 mg/kg/injection, schedule: Q01DX009 (ip), vehicle: saline",100 % of control
same,T/C,[1],97 % of control
same,T/C,"endpoint: mean survival time, dose: 200.0 mg/kg/injection, schedule: Q01DX009 (ip), vehicle: saline",97 % of control
same,T/C,[2],97 % of control
same,T/C,[3],105 % of control
O=C(O)CNCC(C(=O)O)C(=O)O,T/C,"endpoint: mean survival time, dose: 25.0 mg/kg/injection, schedule: Q04DX002 (ip), vehicle: saline",96 % of control
same,T/C,"endpoint: mean survival time, dose: 50.0 mg/kg/injection, schedule: Q04DX002 (ip), vehicle: saline",90 % of control
same,T/C,"endpoint: mean survival time, dose: 100.0 mg/kg/injection, schedule: Q04DX002 (ip), vehicle: saline",90 % of control
CS/C([S-])=N/[NH-].CS/C([S-])=N/[NH-].[Pd],T/C,[12],107 % of control
same,T/C,[13],103 % of control
Cc1c(Cl)c(C)c(Cl)c(C)c1Cl,T/C,[4],101 % of control
same,T/C,[5],96 % of control
same,T/C,[6],101 % of control
CCNC(=S)NN,T/C,"endpoint: mean survival time, dose: 12.5 mg/kg/injection, schedule: Q01DX009 (ip), vehicle: saline with Tween-80",100 % of control
CC(=O)C(C(C)=O)C1C=CCC1 (configuration not stated),T/C,[10],107 % of control
same,T/C,[11],104 % of control
same,T/C,[14],101 % of control
NC(=S)N/N=C/c1nccn1-c1cccc([N+](=O)[O-])c1,T/C,"endpoint: mean survival time, dose: 25.0 mg/kg/injection, schedule: Q04DX002 (ip), vehicle: Klucel (hydroxypropylcellulose) (HPC)",101 % of control
same,T/C,"endpoint: mean survival time, dose: 50.0 mg/kg/injection, schedule: Q04DX002 (ip), vehicle: Klucel (hydroxypropylcellulose) (HPC)",96 % of control
same,T/C,[7],104 % of control
O=C(OC1C(COP(=O)(Oc2ccccc2)Oc2ccccc2)OC(n2nc(SCc3ccccc3)c(=O)[nH]c2=O)C1OC(=O)c1ccccc1)c1ccccc1 (configuration not stated),T/C,"endpoint: median survival time, dose: 12.5 mg/kg/injection, schedule: Q01DX005 (ip), vehicle: distilled water + Tween-80",96 % of control
same,T/C,"endpoint: median survival time, dose: 25.0 mg/kg/injection, schedule: Q01DX005 (ip), vehicle: distilled water + Tween-80",96 % of control
same,T/C,"endpoint: median survival time, dose: 50.0 mg/kg/injection, schedule: Q01DX005 (ip), vehicle: distilled water + Tween-80",97 % of control
same,T/C,"endpoint: median survival time, dose: 100.0 mg/kg/injection, schedule: Q01DX005 (ip), vehicle: distilled water + Tween-80",97 % of control
same,T/C,"endpoint: median survival time, dose: 200.0 mg/kg/injection, schedule: Q01DX005 (ip), vehicle: distilled water + Tween-80",96 % of control
Cc1ccc(C(=O)C(F)F)cc1,T/C,"endpoint: mean survival time, dose: 50.0 mg/kg/injection, schedule: Q01DX001 (ip), vehicle: saline with Tween-80",100 % of control
same,T/C,[12],101 % of control
same,T/C,[13],101 % of control
ClC/C(=N\N1CCCCCC1)c1ccccc1,T/C,[15],103 % of control
same,T/C,[16],103 % of control
same,T/C,"endpoint: mean survival time, dose: 400.0 mg/kg/injection, schedule: Q01DX001 (ip), vehicle: saline",102 % of control
C=C(COC(C)(C)C)CN(C)C,T/C,[8],98 % of control
same,T/C,[10],104 % of control
O=c1cc(C(F)(F)F)[nH]c2ccc(Br)cc12,T/C,"endpoint: mean survival time, dose: 12.5 mg/kg/injection, schedule: Q04DX003 (ip), vehicle: saline with Tween-80",97 % of control
same,T/C,"endpoint: mean survival time, dose: 25.0 mg/kg/injection, schedule: Q04DX003 (ip), vehicle: saline with Tween-80",95 % of control
same,T/C,[9],97 % of control
Clc1nc2n[nH]nc2nc1Cl,T/C,"endpoint: mean survival time, dose: 3.13 mg/kg/injection, schedule: Q01DX009 (ip), vehicle: saline",97 % of control
same,T/C,"endpoint: mean survival time, dose: 6.25 mg/kg/injection, schedule: Q01DX009 (ip), vehicle: saline",100 % of control
same,T/C,"endpoint: mean survival time, dose: 12.5 mg/kg/injection, schedule: Q01DX009 (ip), vehicle: saline",95 % of control
NC(=O)c1c[se]c(C2OC(CO)C(O)C2O)n1 (configuration not stated),T/C,"endpoint: median survival time, dose: 12.5 mg/kg/injection, schedule: Q01DX009 (ip), vehicle: water",174 % of control and 187 % of control
same,T/C,"endpoint: median survival time, dose: 25.0 mg/kg/injection, schedule: Q01DX009 (ip), vehicle: water",170 % of control and 193 % of control
same,T/C,"endpoint: median survival time, dose: 50.0 mg/kg/injection, schedule: Q01DX009 (ip), vehicle: water",206 % of control and 233 % of control
same,T/C,"endpoint: median survival time, dose: 100.0 mg/kg/injection, schedule: Q01DX009 (ip), vehicle: water",216 % of control and 233 % of control
O=C(O)c1nnc(C(=O)O)nn1,T/C,"endpoint: mean survival time, dose: 12.5 mg/kg/injection, schedule: Q01DX009 (ip), vehicle: water",100 % of control
same,T/C,"endpoint: mean survival time, dose: 25.0 mg/kg/injection, schedule: Q01DX009 (ip), vehicle: water",100 % of control
same,T/C,"endpoint: mean survival time, dose: 50.0 mg/kg/injection, schedule: Q01DX009 (ip), vehicle: water",95 % of control
same,T/C,"endpoint: mean survival time, dose: 100.0 mg/kg/injection, schedule: Q01DX009 (ip), vehicle: water",94 % of control
NCC1CCCCO1 (configuration not stated),T/C,"endpoint: mean survival time, dose: 50.0 mg/kg/injection, schedule: Q01DX001 (ip), vehicle: saline",90 % of control
same,T/C,[15],98 % of control
same,T/C,[16],93 % of control
O=C1CC(c2ccc([N+](=O)[O-])cc2)=Nc2ccccc2N1,T/C,[10],102 % of control
same,T/C,[11],101 % of control
same,T/C,[14],96 % of control
CCCCCOC(=S)S,T/C,"endpoint: mean survival time, dose: 9.37 mg/kg/injection, schedule: Q04DX003 (ip), vehicle: Klucel (hydroxypropylcellulose) (HPC)",86 % of control
same,T/C,"endpoint: mean survival time, dose: 37.5 mg/kg/injection, schedule: Q04DX003 (ip), vehicle: Klucel (hydroxypropylcellulose) (HPC)",86 % of control
Cc1cc([NH-])c([NH-])cc1C.[Cl][Pt+2][Cl],T/C,"endpoint: mean survival time, dose: 2.5 mg/kg/injection, schedule: Q01DX009 (ip), vehicle: saline with Tween-80",120 % of control and 123 % of control
same,T/C,"endpoint: mean survival time, dose: 10.0 mg/kg/injection, schedule: Q01DX009 (ip), vehicle: saline with Tween-80",150 % of control and 168 % of control
same,T/C,"endpoint: mean survival time, dose: 10.0 mg/kg/injection, schedule: Q04DX003 (ip), vehicle: water",121 % of control
same,T/C,"endpoint: mean survival time, dose: 16.0 mg/kg/injection, schedule: Q04DX003 (ip), vehicle: water",116 % of control
same,T/C,"endpoint: mean survival time, dose: 24.0 mg/kg/injection, schedule: Q04DX003 (ip), vehicle: water",112 % of control
CC(C)(C)c1ccc(SCC#CCOc2ccc(Cl)cc2)cc1,T/C,[10],95 % of control
same,T/C,[4],95 % of control
same,T/C,[11],91 % of control
same,T/C,[5],96 % of control
same,T/C,[14],88 % of control
same,T/C,[6],87 % of control
